Measured values taken from US20100173885A1, “ORGANOMETEALLIC COMPOUNDS” (priority 2007, published 2010).

Assays:
[1] = Fluorescence quantum yield of photosensitizers; assay type: physicochemical; settings: in MeOH at 648 nm after 410 nm excitation
Experimental: The UV-visible absorption spectra were recorded on an Uvikon 930 spectrophotometer and fluorescence spectra on a Perkin-Elmer LS50 spectrofluorometer.

RAW macrophages = assay: Phototoxicity in RAW macrophages, irradiation at 652 nm, MTT test; assay type: cell-based; settings: RAW cells, 10 μM, 20 mW/cm^2, MTT 24 h after irradiation
Experimental: RAW cells were grown in 96-well cell culture plates (Corning, N.Y.) until 75% confluent in DMEM medium containing 10% FCS. The culture media were replaced with fresh medium containing the Ru, Os or Rh-porphyrin analogs at 10 μM (minimal dark cytotoxicity) and the cells were exposed overnight to the compounds. Then, the media were replaced with DMEM without phenol red containing 10% FCS and cells were irradiated at 652 nm using a diode laser (Applied Optronics, South Plainfield, N.J.) coupled to a frontal diffuser (Medlight SA, Ecublens, Switzerland), at an irradiance of 20 mW/cm^2. Experiments were performed in triplicate wells. Cell viability was evaluated 24 h later using the MTT test. Briefly, 3-(4,5-dimethyl-2-thiazoyl)-2,5-diphenyltetrazolium bromide (MTT, Merck) was added at 250 μg/mL and incubation was continued for 2 h, then the cell culture supernatants were removed. The cell layers were dissolved in iPrOH/0.04N HCl and the absorbance measured at 540 nm in a multiwell-plate reader (iEMS Reader MF, Labsystems, Bioconcept, Switzerland) and compared to the values of control cells incubated with the nanoparticles but without laser irradiation.

Compound | fluorescence quantum yield φf [1] [%] | photosensitivity (photosensitizer ranking) (RAW macrophages)
C1=Cc2nc1c(-c1ccncc1)c1ccc([nH]1)c(-c1ccncc1)c1nc(c(-c3ccncc3)c3ccc([nH]3)c2-c2ccncc2)C=C1 [TPP, 5,10,15,20-tetra(4-pyridyl)porphyrin, reference compound] | 10.4 | 
[Ir4(η^5-Cp*)4(TPP)Cl8] [Compound 8] | 4.5 | 
[OS4(η^6-p-Pr^iC6H4Me)4(TPP)Cl8] [Compound 6] | 7.0 | 
[Rh4(η^5-Cp*)4(TPP)Cl8] [Compound 7] | 7.9 | 
[Ru4(η^6-1,4-C6H4(COOEt)2)4(TPP)Cl8] [Compound 5] | 7.2 | 
[Ru4(η^6-C6H5CH3)4(TPP)Cl8] [Compound 2] | 7.4 | best photosensitizers amongst the Ru-porphyrin compounds
[Ru4(η^6-C6H6)4(TPP)Cl8] [Compound 1] | 6.1 | best photosensitizers amongst the Ru-porphyrin compounds
[Ru4(η^6-C6Me6)4(TPP)Cl8] [Compound 4] | 7.3 | 
[Ru4(η^6-p-Pr^iC6H4Me)4(TPP)Cl8] [Compound 3] | 7.9 | 
